Measurements published in the supplement of paper PMC10307832.

Assays:
Test in all cases: relative viability (nuclei count vs DMSO), 5 days (fraction); higher = more cells survive
[1] = compound: C1CC(C2=C(C1)C3=C(N2)C=CC(=C3)Cl)C(=O)N [Selisistat] + Cc1cc(Nc2cc(N3CCN(C)CC3)nc(Sc3ccc(NC(=O)C4CC4)cc3)n2)n[nH]1 [Tozasertib] (partner 0.1 µM)
Method in brief: (§1)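 Lung cancer cell lines were pin-tool dosed in 1536-well plates on the day after seeding, with either a lone drug or a fixed anchor-drug dose plus five library-drug doses (not always all listed) in √10 steps. Nuclei were counted on 4× images after 5 days. Relative viability is the ratio of treated-well to vehicle-well nuclei counts, with each value a median of duplicate plates.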

[2] = compound: c1ccc2c(CCNc3ccc(Nc4ccncc4)cc3)c[nH]c2c1 [Serdemetan] + CC1(C)CCC(c2ccc(Cl)cc2)=C(CN2CCN(c3ccc(C(=O)NS(=O)(=O)c4ccc(N[C@H](CCN5CCOCC5)CSc5ccccc5)c(S(=O)(=O)C(F)(F)F)c4)cc3)CC2)C1 [Navitoclax] (partner 0.5 µM)
Method in brief: as §1

[3] = compound: c1ccc2c(CCNc3ccc(Nc4ccncc4)cc3)c[nH]c2c1 [Serdemetan] + C[C@@H](Oc1cc(-c2cnn(C3CCNCC3)c2)cnc1N)c1c(Cl)ccc(F)c1Cl [Crizotinib] (partner 1 µM)
Method in brief: as §1

[4] = compound: c1ccc2c(CCNc3ccc(Nc4ccncc4)cc3)c[nH]c2c1 [Serdemetan] + Nc1nc2[nH]cc(CCc3ccc(C(=O)N[C@@H](CCC(=O)O)C(=O)O)cc3)c2c(=O)[nH]1 [Pemetrexed] (partner 0.2 µM)
Method in brief: as §1

| Cell Line | relative viability ([1]; first compound 0.4 µM) | relative viability ([1]; first compound 1.265 µM) | relative viability ([1]; first compound 4 µM) | relative viability ([1]; first compound 12.65 µM) | relative viability ([1]; first compound 40 µM) | relative viability ([2]; first compound 0.04 µM) | relative viability ([2]; first compound 0.1265 µM) | relative viability ([2]; first compound 0.4 µM) | relative viability ([2]; first compound 1.265 µM) | relative viability ([2]; first compound 4 µM) | relative viability ([3]; first compound 0.04 µM) | relative viability ([3]; first compound 0.1265 µM) | relative viability ([3]; first compound 0.4 µM) | relative viability ([3]; first compound 1.265 µM) | relative viability ([3]; first compound 4 µM) | relative viability ([4]; first compound 0.04 µM) | relative viability ([4]; first compound 0.1265 µM) | relative viability ([4]; first compound 0.4 µM) | relative viability ([4]; first compound 1.265 µM) | relative viability ([4]; first compound 4 µM) |
| --- | --- | --- | --- | --- | --- | --- | --- | --- | --- | --- | --- | --- | --- | --- | --- | --- | --- | --- | --- | --- |
| HOP-62 | 0.362 | 0.383 | 0.464 | 0.375 | 0.372 | 1.08 | 0.942 | 1.05 | 0.944 | 0.962 | 0.719 | 0.995 | 0.684 | 0.857 | 0.494 | 0.293 | 0.368 | 0.307 | 0.333 | 0.365 |
| CAL-12T | 0.306 | 0.239 | 0.328 | 0.27 | 0.255 | 1.3 | 1.42 | 1.26 |  | 1.19 | 0.63 | 0.705 | 0.608 |  | 0.74 | 1.17 | 1.19 | 0.951 | 1.19 | 1.05 |
| NCI-H520 | 0.387 | 0.472 | 0.488 | 0.415 | 0.451 | 1 | 1.09 | 1.07 | 0.762 | 0.924 | 0.692 | 0.778 | 0.686 | 0.687 | 0.641 | 0.712 | 0.68 | 0.753 | 0.674 | 0.542 |
| NCI-H1755 | 0.635 | 0.613 | 0.621 | 0.525 | 0.61 | 0.973 | 0.976 | 0.867 | 0.527 | 0.448 | 0.83 | 0.768 | 0.767 | 0.323 | 0.428 | 0.575 | 0.4 | 0.539 | 0.512 | 0.418 |
| NCI-H2023 | 0.417 | 0.34 | 0.286 | 0.263 | 0.307 | 0.929 | 1.05 | 0.99 | 0.682 | 0.344 | 0.688 | 0.644 | 0.452 | 0.286 | 0.237 | 0.213 | 0.223 | 0.227 | 0.206 | 0.217 |
| NCI-H2009 | 0.743 | 0.734 | 0.765 | 0.694 | 0.744 | 1.11 | 1.12 | 1.17 | 1.06 | 1.01 | 1 | 0.966 | 0.912 | 0.803 | 0.956 | 1.03 | 0.89 | 1.1 | 0.895 | 0.892 |
